Experimental data as given in ChEMBL document CHEMBL1201862, “PubChem BioAssay data set” (2004).
“And” between values parts separate entries of the source, which are not always exact repeats. Identical values can stand only once.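 Values below derive from 48-hour exposures of cells grown in 96-well plates, with endpoints linearly interpolated between the two concentrations bracketing the appropriate inhibition level. GI50 = concentration required for 50% inhibition of growth.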 The source made the active and inactive calls. No stated cut-off is given here; in the data, active = GI50 up to about 1.1 µM and inactive = higher.

Tests used:
Assay in all cases: NCI anticancer screen, dose series, 48 h
786-0 = test system: 786-0
A549 = test system: A549
ACHN = test system: ACHN
CAKI-1 = test system: CAKI-1
CCRF-CEM = test system: CCRF-CEM
DU-145 = test system: DU-145
EKVX = test system: EKVX
HCT-116 = test system: HCT-116
HCT-15 = test system: HCT-15
HT-29 = test system: HT-29
Hs-578T = test system: Hs-578T
IGROV-1 = test system: IGROV-1
K562 = test system: K562
KM12 = test system: KM12
LOX IMVI = test system: LOX IMVI
M14 = test system: M14
MCF7 = test system: MCF7
MDA-MB-231 = test system: MDA-MB-231
MDA-MB-435 = test system: MDA-MB-435
MDA-N = test system: MDA-N
MOLT-4 = test system: MOLT-4
Malme-3M = test system: Malme-3M
NCI-H23 = test system: NCI-H23
NCI-H460 = test system: NCI-H460
NCI-H522 = test system: NCI-H522
NCI/ADR-RES = test system: NCI/ADR-RES
OVCAR-4 = test system: OVCAR-4
OVCAR-5 = test system: OVCAR-5
OVCAR-8 = test system: OVCAR-8
PC-3 = test system: PC-3
RPMI-8226 = test system: RPMI-8226
RXF 393 = test system: RXF 393
SF-268 = test system: SF-268
SF-295 = test system: SF-295
SK-MEL-28 = test system: SK-MEL-28
SK-MEL-2 = test system: SK-MEL-2
SK-MEL-5 = test system: SK-MEL-5
SK-OV-3 = test system: SK-OV-3
SN12C = test system: SN12C
SNB-19 = test system: SNB-19
SNB-75 = test system: SNB-75
SR = test system: SR
SW-620 = test system: SW-620
TK-10 = test system: TK-10
U-251 = test system: U-251
UACC-257 = test system: UACC-257
UACC-62 = test system: UACC-62
UO-31 = test system: UO-31
A498 = test system: A498
COLO 205 = test system: COLO 205
HCC 2998 = test system: HCC 2998
NCI-H226 = test system: NCI-H226
SF-539 = test system: SF-539
T47D = test system: T47D
HL-60 = test system: HL-60
HOP-62 = test system: HOP-62
HOP-92 = test system: HOP-92
OVCAR-3 = test system: OVCAR-3

COC[C@@H](/N=C/c1ccc([N+](=O)[O-])cc1)C(C)C was tested, and the GI50 (786-0) was > 100 µM (inactive), the GI50 (A549) was > 100 µM (inactive) and the GI50 (ACHN) was > 100 µM (inactive). The GI50 (CAKI-1) was > 100 µM (inactive), the GI50 (CCRF-CEM) was 75.9 µM (inactive) and the GI50 (DU-145) was > 100 µM (inactive). For the same molecule, the GI50 (EKVX) was > 100 µM (inactive), the GI50 (HCT-116) was 26 µM (inactive) and the GI50 (HCT-15) was > 100 µM. The GI50 (HT-29) was > 100 µM (inactive), the GI50 (Hs-578T) was > 100 µM (inactive) and the GI50 (IGROV-1) was > 100 µM (inactive). The GI50 (K562) was 34.1 µM (inactive), the GI50 (KM12) was > 100 µM (inactive) and the GI50 (LOX IMVI) was 52.7 µM (inactive). For the same molecule, the GI50 (M14) was 70.1 µM (inactive), the GI50 (MCF7) was 95.1 µM (inactive) and the GI50 (MDA-MB-231) was 3.24 µM (inactive). For the same molecule, the GI50 (MDA-MB-435) was > 100 µM (inactive), the GI50 (MDA-N) was 29.4 µM (inactive) and the GI50 (MOLT-4) was 42.2 µM (inactive). The GI50 (Malme-3M) was > 100 µM (inactive), the GI50 (NCI-H23) was > 100 µM (inactive) and the GI50 (NCI-H460) was > 100 µM (inactive). The GI50 (NCI-H522) was > 100 µM (inactive), the GI50 (NCI/ADR-RES) was > 100 µM (inactive) and the GI50 (OVCAR-4) was > 100 µM (inactive). For the same molecule, the GI50 (OVCAR-5) was > 100 µM (inactive), the GI50 (OVCAR-8) was > 100 µM (inactive) and the GI50 (PC-3) was > 100 µM (inactive). The GI50 (RPMI-8226) was 25.2 µM (inactive), the GI50 (RXF 393) was > 100 µM (inactive) and the GI50 (SF-268) was > 100 µM (inactive). The GI50 (SF-295) was > 100 µM (inactive), the GI50 (SK-MEL-28) was > 100 µM (inactive) and the GI50 (SK-MEL-2) was > 100 µM (inactive). For the same molecule, the GI50 (SK-MEL-5) was > 10 µM (inactive), the GI50 (SK-OV-3) was > 100 µM (inactive) and the GI50 (SN12C) was > 100 µM (inactive). For the same molecule, the GI50 (SNB-19) was > 100 µM (inactive), the GI50 (SNB-75) was > 100 µM (inactive) and the GI50 (SR) was 92.7 µM (inactive). For the same molecule, the GI50 (SW-620) was > 100 µM (inactive), the GI50 (TK-10) was > 100 µM (inactive) and the GI50 (U-251) was > 100 µM (inactive). For the same molecule, the GI50 (UACC-257) was > 100 µM (inactive), the GI50 (UACC-62) was > 100 µM (inactive) and the GI50 (UO-31) was > 100 µM (inactive).
For CC(C)(C)OC(=O)C1C(=O)NC(=O)CC1C(OCc1ccccc1)C(OCc1ccccc1)C(COCc1ccccc1)OCc1ccccc1 (stereo not drawn), the GI50 (786-0) was > 100 µM (inactive), the GI50 (A498) was > 75 µM (inactive) and the GI50 (ACHN) was > 75 µM (inactive). For the same molecule, the GI50 (COLO 205) was 58.2 µM (inactive), the GI50 (DU-145) was > 75 µM (inactive) and the GI50 (EKVX) was > 100 µM (inactive). For the same molecule, the GI50 (HCC 2998) was > 100 µM (inactive), the GI50 (HCT-15) was > 100 µM and the GI50 (HT-29) was 16.6 µM (inactive). The GI50 (IGROV-1) was > 100 µM (inactive), the GI50 (K562) was 65.8 µM (inactive) and 88.3 µM (inactive) and the GI50 (M14) was > 100 µM (inactive) and 71.8 µM (inactive). For the same molecule, the GI50 (MDA-N) was > 100 µM (inactive), the GI50 (NCI-H226) was > 100 µM (inactive) and 61.9 µM (inactive) and the GI50 (NCI-H23) was > 100 µM (inactive). For the same molecule, the GI50 (NCI/ADR-RES) was > 100 µM (inactive) and 58.6 µM (inactive), the GI50 (OVCAR-4) was 50.6 µM (inactive) and the GI50 (OVCAR-5) was > 100 µM (inactive). For the same molecule, the GI50 (OVCAR-8) was > 100 µM (inactive) and 52.5 µM (inactive), the GI50 (PC-3) was > 100 µM (inactive) and 69.2 µM (inactive) and the GI50 (SF-268) was 74 µM (inactive) and 71.4 µM (inactive). The GI50 (SF-295) was 50.6 µM (inactive), the GI50 (SF-539) was > 100 µM (inactive) and the GI50 (SK-MEL-28) was > 100 µM (inactive). For the same molecule, the GI50 (SN12C) was > 100 µM (inactive), the GI50 (SNB-19) was > 100 µM (inactive) and the GI50 (SW-620) was > 100 µM (inactive). For the same molecule, the GI50 (T47D) was 2.14 µM (inactive), the GI50 (TK-10) was > 100 µM (inactive) and the GI50 (UACC-257) was > 100 µM (inactive) and 58.7 µM (inactive).
For CC(C)c1c(O[Si](C(C)C)(C(C)C)C(C)C)cc2c(c1O)CC[C@H]1C(C)(C)CCC[C@]21C, the GI50 (786-0) was > 100 µM (inactive), the GI50 (A498) was > 100 µM (inactive) and the GI50 (A549) was > 100 µM (inactive). For the same molecule, the GI50 (ACHN) was > 100 µM (inactive), the GI50 (CAKI-1) was > 100 µM (inactive) and the GI50 (CCRF-CEM) was 49.5 µM (inactive). For the same molecule, the GI50 (COLO 205) was > 100 µM (inactive), the GI50 (DU-145) was > 100 µM (inactive) and the GI50 (EKVX) was > 100 µM (inactive). The GI50 (HCT-116) was > 100 µM (inactive), the GI50 (HCT-15) was > 100 µM and the GI50 (HL-60) was 24.6 µM (inactive). For the same molecule, the GI50 (HOP-62) was > 100 µM (inactive), the GI50 (HOP-92) was > 100 µM (inactive) and the GI50 (HT-29) was > 100 µM (inactive). For the same molecule, the GI50 (Hs-578T) was > 100 µM (inactive), the GI50 (IGROV-1) was > 100 µM (inactive) and the GI50 (K562) was 65.6 µM (inactive). For the same molecule, the GI50 (KM12) was > 100 µM (inactive), the GI50 (LOX IMVI) was > 100 µM (inactive) and the GI50 (M14) was > 100 µM (inactive). For the same molecule, the GI50 (MCF7) was > 100 µM (inactive), the GI50 (MDA-MB-231) was > 100 µM (inactive) and the GI50 (MDA-MB-435) was > 100 µM (inactive). For the same molecule, the GI50 (MDA-N) was > 100 µM (inactive), the GI50 (MOLT-4) was 43.9 µM (inactive) and the GI50 (Malme-3M) was > 100 µM (inactive). The GI50 (NCI-H226) was > 100 µM (inactive), the GI50 (NCI-H23) was 97.5 µM (inactive) and the GI50 (NCI-H460) was > 100 µM (inactive). The GI50 (NCI-H522) was 47.2 µM (inactive), the GI50 (NCI/ADR-RES) was > 100 µM (inactive) and the GI50 (OVCAR-3) was > 100 µM (inactive). For the same molecule, the GI50 (OVCAR-4) was > 100 µM (inactive), the GI50 (OVCAR-5) was > 100 µM (inactive) and the GI50 (OVCAR-8) was > 100 µM (inactive). For the same molecule, the GI50 (PC-3) was > 100 µM (inactive), the GI50 (RPMI-8226) was 45.7 µM (inactive) and the GI50 (RXF 393) was > 100 µM (inactive). The GI50 (SF-268) was > 100 µM (inactive), the GI50 (SF-295) was > 100 µM (inactive) and the GI50 (SF-539) was > 100 µM (inactive). For the same molecule, the GI50 (SK-MEL-28) was > 100 µM (inactive), the GI50 (SK-MEL-2) was > 100 µM (inactive) and the GI50 (SK-MEL-5) was > 100 µM (inactive). The GI50 (SK-OV-3) was > 100 µM (inactive), the GI50 (SN12C) was > 100 µM (inactive) and the GI50 (SNB-19) was > 100 µM (inactive). The GI50 (SNB-75) was 50.6 µM (inactive), the GI50 (SW-620) was > 100 µM (inactive) and the GI50 (TK-10) was 6.12 µM (inactive). The GI50 (U-251) was > 100 µM (inactive), the GI50 (UACC-257) was > 100 µM (inactive) and the GI50 (UACC-62) was > 100 µM (inactive). The GI50 (UO-31) was > 100 µM (inactive).
